The values below are quoted from earlier work in PMC8657489, “Identification of VEGF Signaling Inhibition-Induced Glomerular Injury in Rats through Site-Specific Urinary Biomarkers” (International Journal of Molecular Sciences, 2021).

Series [1] concerns patients. Set-up: method as in PMID 24574832. The following applies: patients receiving Sunitinib.
Series [2] concerns glomerular endothelial cells and podocytes. Set-up: method as in PMID 17726104. The following applies: rats.
Series [3] has as its system patients. The conditions noted are these: human, in vivo.

For the molecule `CCN(CC)CCNC(=O)c1c(C)[nH]c(/C=C2\C(=O)Nc3ccc(F)cc32)c1C` [Sunitinib], the renal adverse effects entry in series [1] is “proteinuria and renal insufficiency were reported”.

As to `COc1cc2c(Nc3ccc(Br)cc3F)ncnc2cc1OCC1CCN(C)CC1` [vandetanib], in series [2], the glomerular morphological changes result was “not only the loss of fenestration in glomerular endothelial cells, but also morphological changes in podocytes”.

With “Bevacizumab: monoclonal antibody against VEGF-A, also known as Avastin”, in series [3], the “patients who developed proteinuria” value was 21~64% and the “proteinuria considered severe cases (grade 3–4)” value is on record as 2.1–11.9%.
